These results are taken from patent US20210393547A1, “USE OF EMODIN IN TREATING RETINAL ISCHEMIA OR A DISEASE, CONDITION, OR DISORDER ASSOCIATED WITH RETINAL ISCHEMIA” (priority 2020, published 2021).

Molecules are shown by their SMILES.

For one test, the system named is RGC-5 cells. Nature of the test: cells. The format is cell-based. The note with it: Mus musculus, RGC5, read-out: Cell viability (% of control). The method, then:
RGC-5 cells have been reported to be not transformed rat RGCs, but rather are mouse retinal neuronal precursor cells. OGD was established by incubating RGC-5 cells in Dulbecco's modified Eagle medium (DMEM; Thermo Fisher Scientific Inc.) without glucose at 37° C. under ischemia simulation conditions, namely 1% O2 (measured using a Penguin Incubator; Astec Company, Kukuoka, Japan), 94% N2 and 5% CO2. Various experimental groups (Table 1) were investigated. […]
Mitochondrial nicotinamide adenine dinucleotide phosphate dependent oxidoreductases are able to reduce MTT to produce formazan and thus increased levels of dark purple formazan that are associated with greater cell viability. […] After shaking, the optical density (OD) of the dissolved formazan was measured using an ELISA plate reader (Synergy H1 Multi-Mode Reader BioTek Instruments) at 562 nm. Cell viability was calculated as the change in OD value compared to the untreated control (100%).
The cultured cells were used to identify the effective dose(s) of the tested agent emodin. The effect of emodin (0.25 and 0.5 μM) on the cultured cells was evaluated utilizing MTT cell viability assays and a cellular ischemia simulation model, namely OGD, for 1 day. […]

The subject of test [1] is retinal ganglion cells (RGC) in ischemic retina of Wistar rats. The test can be described thus: Retrograde fluorogold labeling of RGCs after retinal ischemia/reperfusion. The class given is in vivo, rat. As to conditions: n=4, mean±SE. The procedure: Emodin was purchased from Sigma-Aldrich (E7881; 90%; storage at 2-8° C.; from Frangula bark; St. Louis, Mo., United States). Drug administration for different procedures, namely ERG, fluorogold RGC labelling, cresyl violet retinal staining and Western blot assays, were described in Tables 3 to 6. Vehicle or emodin (5 μL) was administered via an intravitreous injection route so that these agents were then able to be directly diffused to the target. Emodin was dissolved in vehicle (DMSO:distilled water=1:3). The defined final cellular concentrations of administered drug were 0.25 or 0.5 μM, which were achieved after 40 times dilution from the stock concentrations, namely 10 or 20 μM, based on an arbitrary definition of the vitreous volume as 200 μL. To test a wider range of dose-response, 4 μM of emodin was thus added in the animal experiments. The Vehicle+IR and Emo+IR groups (pre-ischemic administration of emodin 4, 10 or 20 μM) were subjected to following the experimental procedures; these were initial pre-ischemic intravitreous injection (vehicle or emodin), retinal ischemia induction 1 day later, and sacrifice of the animal on the following day to allow the various post-mortem procedures except ERG. […] Finally, the samples were then analyzed by fluorescent microscopy. The RGC density was defined as the total RGC amount divided by the whole retinal area and its mean was then calculated.

For the compound `Cc1cc(O)c2c(c1)C(=O)c1cc(O)cc(O)c1C2=O` [emodin, 6-methyl-1,3,8-trihydroxyanthraquinone], the viability at 0.25 µM in the test on RGC-5 cells is 43.8 ± 3.75%. For the same compound, the viability at 0.5 µM with RGC-5 cells was 47.5 ± 3.99%. Further, the “RGC density (retrograde fluorogold labeled)” value in test [1] (Emo10+IR: pre-ischemic intravitreous 10 μM emodin, P<0.01, Sham 5323.53, Vehicle+IR 2069.12) is on record as 3345.59±206.80 /0.17 mm^2; in test [1] (Emo20+IR: pre-ischemic intravitreous 20 μM emodin, P<0.001), 4623.53±179.48 /0.17 mm^2.

Broadly, the viability is the share of living cells, or the viability signal relative to a control.
